These results are taken from ChEMBL document CHEMBL2407038, “Cyclophilin inhibitors as antiviral agents” (Bioorg Med Chem Lett, 2013).

Square brackets hold non-standard residues; d marks the D form. Peptide text beside a SMILES is read from it. MeBmt = C/C=C/C[C@@H](C)[C@@H](O)[C@H](NC)C(=O)O; NEtVal = CCN[C@H](C(=O)O)C(C)C; NMeL = CN[C@@H](CC(C)C)C(=O)O; NMeV = CN[C@H](C(=O)O)C(C)C; dHiv = CC(C)[C@@H](O)C(=O)O; dNMeA = CN[C@H](C)C(=O)O; Abu = CC[C@H](N)C(=O)O Some results are limits rather than exact numbers.

Experiment in all cases: microbe, parasite or virus in culture
Test [1] relates to Human immunodeficiency virus 1. The settings on record: Human immunodeficiency virus 1, 3B, MT4, 96 h.
Description: Antiviral activity against HIV1 3B infected in human MT4 cells coinfected with HTLV1 assessed as reduction in virus-induced cytopathogenicity after 4 days by MTT assay
Test [2] relates to Human immunodeficiency virus 1. Particulars: Human immunodeficiency virus 1, 3B, CEM-SS, 144 h.
Description: Antiviral activity against HIV1 3B infected in human CEM-SS cells assessed as reduction in virus-induced cytopathogenicity after 6 days by MTS assay
Test [3] deals with Human immunodeficiency virus 1. The settings on record: Human immunodeficiency virus 1, LAI, CEM-4.
Description: Antiviral activity against HIV1 LAI infected in human CEM4 cells assessed as inhibition of viral replication
The subject of test [4] is Hepatitis C virus. Particulars: Huh-7.
Description: Antiviral activity against Hepatitis C virus infected in human Huh7ET cells by luciferase reporter gene assay
Test [5] concerns Hepatitis C virus. Particulars: Huh-7. This is another data set of the same source.
Description: Antiviral activity against Hepatitis C virus infected in human HuH7 cells by luciferase reporter gene assay
Test [6] deals with Hepatitis C virus. The settings on record: Huh-7, 72 h.
Description: Antiviral activity against Hepatitis C virus infected in human Huh7ET cells after 72 hrs by luciferase reporter gene assay
The test system of test [7] is Hepatitis C virus.
Description: Antiviral activity against Hepatitis C virus
Test [8] has as its system Hepatitis C virus. The settings on record: 16 h.
Description: Antiviral activity against Hepatitis C virus after 16 hrs by cell-based assay
In test [9] the test system is Hepatitis C virus. The settings on record: genotype 2b.
Description: Antiviral activity against Hepatitis C virus genotype 2b infected in human Huh-9-13 cells after overnight incubation by MTT assay
Test [10] has as its system Human immunodeficiency virus 1. The settings on record: Human immunodeficiency virus 1, 3B, MT4.
Description: Antiviral activity against HIV1 3B infected in human MT4 cells assessed as reduction in virus-induced cytopathogenicity after 5 to 6 days by MTT assay
Test [11] concerns Hepatitis C virus. The settings on record: Huh-5-2, 72 h.
Description: Antiviral activity against Hepatitis C virus infected in human HuH5.2 cells after 72 hrs by luciferase reporter gene assay

Compound `C/C=C/C[C@@H](C)[C@@H](O)[C@H]1C(=O)N[C@@H](CC)C(=O)N(C)CC(=O)N(C)[C@@H](CC(C)(C)O)C(=O)N[C@@H](C(C)C)C(=O)N(C)[C@@H](CC(C)C)C(=O)N[C@@H](C)C(=O)N[C@H](C)C(=O)N(C)[C@@H](CC(C)C)C(=O)N(C)[C@@H](CC(C)C)C(=O)N(C)[C@@H](C(C)C)C(=O)N1C` yielded an EC50 in test [1] of 279 nM. In other words, the sub-micromolar range. In [1], `C/C=C/C[C@@H](C)[C@@H](O)[C@H]1C(=O)N[C@@H](CC)C(=O)N(C)CC(=O)N(C)[C@@H](C(C)C)C(=O)N[C@@H](C(C)C)C(=O)N(C)[C@@H](CC(C)C)C(=O)N[C@@H](C)C(=O)N[C@H](C)C(=O)N(C)[C@@H](CC(C)C)C(=O)N(C)[C@@H](CC(C)C)C(=O)N(C)[C@@H](C(C)C)C(=O)N1C` came in with an EC50 of 54 nM. As to `C/C=C/C[C@@H](C)[C@@H](O)[C@H]1C(=O)N[C@@H](CC)C(=O)N(C)C(OC(C)=O)C(=O)N(C)[C@@H](CC(C)C)C(=O)N[C@@H](C(C)C)C(=O)N(C)[C@@H](CC(C)C)C(=O)N[C@@H](C)C(=O)N[C@H](C)C(=O)N(C)[C@@H](CC(C)C)C(=O)N(C)[C@@H](CC(C)C)C(=O)N(C)[C@@H](C(C)C)C(=O)N1C` (stereo partly specified), half-maximal inhibition in test [2] (IC50) was put at 119 nM. Same read-out and setting: in the case of `C/C=C/C[C@@H](C)[C@@H](OC(C)=O)[C@H]1C(=O)N[C@@H](CC)C(=O)N(C)C(OC(C)=O)C(=O)N(C)[C@@H](CC(C)C)C(=O)N[C@@H](C(C)C)C(=O)N(C)[C@@H](CC(C)C)C(=O)N[C@@H](C)C(=O)N[C@H](C)C(=O)N(C)[C@@H](CC(C)C)C(=O)N(C)[C@@H](CC(C)C)C(=O)N(C)[C@@H](C(C)C)C(=O)N1C` (stereo partly specified) it was 115 nM.

With `CC[C@@H]1NC(=O)[C@H]([C@H](O)[C@H](C)C/C=C/CO)N(C)C(=O)[C@H](C(C)C)N(C)C(=O)[C@H](CC(C)C)N(C)C(=O)[C@H](CC(C)C)N(C)C(=O)[C@@H](C)NC(=O)[C@H](C)NC(=O)[C@H](CC(C)C)N(C)C(=O)[C@H](C(C)C)NC(=O)[C@H](CC(C)C)N(C)C(=O)CN(C)C1=O`, the concentration giving a half-maximal response (EC50) in test [1] turned out to be 460 nM. `C/C=C/C[C@@H](C)[C@@H](O)[C@H]1C(=O)N[C@@H](CC)C(=O)N(C)[C@H](SCCN(CC)CC)C(=O)N(C)[C@@H](CC(C)C)C(=O)N[C@@H](C(C)C)C(=O)N(C)[C@@H](CC(C)C)C(=O)N[C@@H](C)C(=O)N[C@H](C)C(=O)N(C)[C@@H](CC(C)C)C(=O)N(C)[C@@H](CC(C)C)C(=O)N(C)[C@@H](C(C)C)C(=O)N1C` returned an EC50 in [3] of 2.5 nM. In test [2], `C/C=C/C[C@@H](C)[C@@H](O)[C@H]1C(=O)N[C@@H](CC)C(=O)N(C)[C@@H](CSCCN2CCOCC2)C(=O)N(C)[C@@H](CC(C)(C)O)C(=O)N[C@@H](C(C)C)C(=O)N(C)[C@@H](CC(C)C)C(=O)N[C@@H](C)C(=O)N[C@H](C)C(=O)N(C)[C@@H](CC(C)C)C(=O)N(C)[C@@H](CC(C)C)C(=O)N(C)[C@@H](C(C)C)C(=O)N1C` displayed an EC50 of 94.9 nM. On the same count and under the same terms, in the case of `C/C=C/C[C@@H](C)[C@@H](O)[C@H]1C(=O)N[C@@H](CC)C(=O)N(C)[C@H](OC)C(=O)N(C)[C@@H](CC(C)(C)O)C(=O)N[C@@H](C(C)C)C(=O)N(C)[C@@H](CC(C)C)C(=O)N[C@@H](C)C(=O)N[C@H](C)C(=O)N(C)[C@@H](CC(C)C)C(=O)N(C)[C@@H](CC(C)C)C(=O)N(C)[C@@H](C(C)C)C(=O)N1C` it was 60 nM. Take `C/C=C/C[C@@H](C)[C@@H](O)[C@H]1C(=O)N[C@@H](CC)C(=O)N(C)CC(=O)N(C)[C@@H](CC(C)C)C(=O)N[C@@H](C(C)C)C(=O)N(C)[C@@H](CC(C)C)C(=O)N[C@@H](C)C(=O)N[C@H](C)C(=O)N(C)[C@@H](CC(C)(C)O)C(=O)N(C)[C@@H](CC(C)C)C(=O)N(C)[C@@H](C(C)C)C(=O)N1C`: in [1], the EC50 turned out to be 255 nM. In other words, the sub-micromolar range.

With `C/C=C/C[C@@H](C)[C@@H](O)[C@H]1C(=O)N[C@@H](CC)C(=O)N(C)[C@H](SCCCN2CCOCC2)C(=O)N(C)[C@@H](CC(C)(C)O)C(=O)N[C@@H](C(C)C)C(=O)N(C)[C@@H](CC(C)C)C(=O)N[C@@H](C)C(=O)N[C@H](C)C(=O)N(C)[C@@H](CC(C)C)C(=O)N(C)[C@@H](CC(C)C)C(=O)N(C)[C@@H](C(C)C)C(=O)N1C`, the EC50 in the test with Hepatitis C virus [4] was 40 nM.

In the test with Hepatitis C virus [5], `C/C=C/C[C@@H](C)[C@@H](O)[C@H]1C(=O)N[C@@H](CC)C(=O)N(C)[C@@H](CSCCCN2CCOCC2)C(=O)N(C)[C@@H](CC(C)(C)O)C(=O)N[C@@H](C(C)C)C(=O)N(C)[C@@H](CC(C)C)C(=O)N[C@@H](C)C(=O)N[C@H](C)C(=O)N(C)[C@@H](CC(C)C)C(=O)N(C)[C@@H](CC(C)C)C(=O)N(C)[C@@H](C(C)C)C(=O)N1C` had an EC50 of 20 nM. In the test with Hepatitis C virus [6], `C/C=C/C[C@@H](C)[C@@H](O)[C@H]1C(=O)N[C@@H](CC)C(=O)N(C)CC(=O)N(C)[C@@H](CC(C)(C)OCc2ccccc2)C(=O)N[C@@H](C(C)C)C(=O)N(C)[C@@H](CC(C)C)C(=O)N[C@@H](C)C(=O)N[C@H](C)C(=O)N(C)[C@@H](CC(C)C)C(=O)N(C)[C@@H](CC(C)C)C(=O)N(C)[C@@H](C(C)C)C(=O)N1C` yielded an EC50 of 410 nM.

Consider `C/C=C/C[C@@H](C)[C@@H](O)[C@H]1C(=O)N[C@@H](CC)C(=O)N[C@H](C)C(=O)N(C)[C@@H](CC(C)C)C(=O)N(C/C=C(\C)CO)[C@@H](C(C)C)C(=O)N(C)[C@@H](CC(C)C)C(=O)N[C@@H](C)C(=O)N[C@H](C)C(=O)N(C)[C@@H](CC(C)C)C(=O)N(C)[C@@H](CC(C)C)C(=O)N(C)[C@@H](C(C)C)C(=O)N1C`, for which, in the test with Hepatitis C virus [7], a half-maximal response (EC50) required 50 nM.

`C/C=C/C[C@@H](C)[C@@H](O)[C@H]1C(=O)N[C@@H]([C@@H](C)O)C(=O)N(C)CC(=O)N(C)[C@@H](CC(C)C)C(=O)N[C@@H](C(C)C)C(=O)N(C)[C@@H](CC(C)C)C(=O)N[C@@H](C)C(=O)N[C@H](C)C(=O)N(C)[C@@H](CC(C)CO)C(=O)N(C)[C@@H](CC(C)C)C(=O)N(C)[C@@H](C(C)C)C(=O)N1C` (stereo partly specified) gave an EC50 in the test on Hepatitis C virus [8] of less than 3000 nM.

Turning to `C/C=C/C[C@@H](C)[C@@H](O)[C@H]1C(=O)N[C@@H](CC)C(=O)N(C)[C@H](C)C(=O)N(CC)[C@@H](C(C)C)C(=O)N[C@@H](CC(C)C)C(=O)N(C)[C@@H](CC(C)C)C(=O)N[C@@H](C)C(=O)O[C@H](C(C)C)C(=O)N(C)[C@@H](CC(C)C)C(=O)N[C@@H](CC(C)C)C(=O)N(C)[C@@H](C(C)C)C(=O)N1C` (cyclo(A[dHiv][NMeL]L[NMeV][MeBmt][Abu][dNMeA][NEtVal]L[NMeL])), the EC50 in the test on Hepatitis C virus [9] is 37 nM. That is a double-digit nanomolar value. Regarding `C/C=C/C[C@@H](C)[C@@H](O)[C@H]1C(=O)N[C@@H](CC)C(=O)N(C)[C@H](C)C(=O)N(CC)[C@@H](C(C)C)C(=O)N[C@@H](C(C)C)C(=O)N(C)[C@@H](CC(C)C)C(=O)N[C@@H](C)C(=O)N[C@H](C)C(=O)N(C)[C@@H](CC(C)C)C(=O)N(C)[C@@H](CC(C)C)C(=O)N(C)[C@@H](C(C)C)C(=O)N1C` [ALISPORIVIR], the EC50 in [10] is 63 nM; in the test on Hepatitis C virus [11], 25 nM. For `C/C=C/C[C@@H](C)[C@@H](O)[C@H]1C(=O)N[C@@H](CC)C(=O)N(C)CC(=O)N(C)[C@@H](CC(C)C)C(=O)N[C@@H](C(C)C)C(=O)N(C)[C@@H](CC(C)C)C(=O)N[C@@H](C)C(=O)N[C@H](C)C(=O)N(C)[C@@H](CC(C)C)C(=O)N(C)[C@@H](CC(C)C)C(=O)N(C)[C@@H](C(C)C)C(=O)N1C` [CYCLOSPORINE], the EC50 in test [1] worked out at 450 nM; with Hepatitis C virus [7], 230 nM. Regarding `C/C=C/C[C@@H](C)[C@@H](O)[C@H]1C(=O)N[C@@H](CC)C(=O)N(C)CC(=O)N(C)[C@@H]([C@@H](C)CC)C(=O)N[C@@H](C(C)C)C(=O)N(C)[C@@H](CC(C)C)C(=O)N[C@@H](C)C(=O)N[C@H](C)C(=O)N(C)[C@@H](CC(C)C)C(=O)N(C)[C@@H](CC(C)C)C(=O)N(C)[C@@H](C(C)C)C(=O)N1C` [NIM811], in test [1], a half-maximal effect (EC50) was put at 47 nM. In other words, the double-digit nanomolar range.

`C/C=C/C[C@@H](C)[C@@H](O)[C@H]1C(=O)N[C@@H](CC)C(=O)N(C)[C@H](SCCN(C)C)C(=O)N(C)[C@@H](CC(C)(C)O)C(=O)N[C@@H](C(C)C)C(=O)N(C)[C@@H](CC(C)C)C(=O)N[C@@H](C)C(=O)N[C@H](C)C(=O)N(C)[C@@H](CC(C)C)C(=O)N(C)[C@@H](CC(C)C)C(=O)N(C)[C@@H](C(C)C)C(=O)N1C` [SCY 635]: in [3], the midpoint of the response, the EC50, lay at 45 nM.

One may read the EC50 as the midpoint of the concentration-response curve. A higher EC50 goes with lower potency in that assay. The term IC50 denotes the concentration needed to halve the response being measured. Higher therefore signals a need for much substance.
